From patent US20080214583A1, “7H-Pyrrolo[2,3-D]Pyrimidine Derivatives, As Well As Their Therapeutically Acceptable Salts, Pharmaceutical Preparations Containing Them And Process For Production The Active Agent” (priority 2004, published 2008)

| SMILES | melting point [°C] |
| --- | --- |
| Cc1c(C)n(-c2cccc(Cl)c2)c2ncnc(Nc3cc(C(C)(C)C)nn3-c3cccc([N+](=O)[O-])c3)c12 [Example 4, [5-tert.-butyl-2-(3-nitro-phenyl)-2H-pyrazole-3-yl]-[7-(3-chlorophenyl)-5,6-dimethyl-7H-pyrrolo[2,3-d]pyrimidine-4-yl]-amine] | 189 to 190 |
| Cc1c(C)n(CCCN2CCOCC2)c2ncnc(NN=Cc3ccc(O)c([N+](=O)[O-])c3)c12 [Example 13, 4-{[5,6-dimethyl-7-(3-morpholine-4-yl-propyl)-7H-pyrrolo[2,3-d]pyrimidine-4-yl]hydrazonomethyl}-2-nitro-phenol] | 158.8 to 161.5 |
| Cc1c(C)n(CCCN2CCOCC2)c2ncnc(Nc3cc(C(C)(C)C)nn3-c3cccc([N+](=O)[O-])c3)c12 [Example 16, [5-tert.-butyl-2-(3-nitro-phenyl)-2H-pyrazole-3-yl]-[5,6-dimethyl-7-(3-morpholine-4-yl-propyl)-7H-pyrrolo[2,3-d]pyrimidine-4-yl]-amine] | 120.9 to 125.3 |
| COc1ccccc1C=NNc1ncnc2c1c(C)c(C)n2Cc1ccccc1 [Example 17, N-(7-benzyl-5,6-dimethyl-7H-pyrrolo[2,3-d]pyrimidine-4-yl)-N′-(2-methoxy-benzylidene)-hydrazine] | 214 to 216 |
| Cc1c(C)n(-c2cccc(Cl)c2)c2ncnc(C(=NN)c3ccc(O)c([N+](=O)[O-])c3)c12 [Example 21, 4-{[5,6-dimethyl-7-(3-chloro-phenyl)-7H-pyrrolo[2,3-d]pyrimidine-4-yl]-hydrazonomethyl}-2-nitro-phenol] | 204.2 to 206.5 |
| COc1cc(C(=NN)c2ncnc3c2c(C)c(C)n3-c2cccc(Cl)c2)ccc1O [Example 24, 4-{[5,6-dimethyl-7-(3-chloro-phenyl)-7H-pyrrolo[2,3-d]pyrimidine-4-yl]-hydrazonomethyl}-2-methoxy-phenol] | 146 to 187 |
| Cc1c(C)n(Cc2ccccc2)c2ncnc(NN=Cc3ccc(C(F)(F)F)cc3)c12 [Example 26, N-(7-benzyl-5,6-dimethyl-7H-pyrrolo[2,3-d]pyrimidine-4-yl)-N′-(4-trifluoromethyl-benzylidene)-hydrazine] | 165 to 166 |
| Cc1c(C)n(Cc2ccccc2)c2ncnc(C(=NN)c3ccc(O)c([N+](=O)[O-])c3)c12 [Example 28, 4-[(7-benzyl-5,6-dimethyl-7H-pyrrolo[2,3-d]pyrimidine-4-yl)-hydrazonomethyl]-2-nitro-phenol] | 202 to 205 |
| Cc1cc(C(=NN)c2ncnc3c2c(C)c(C)n3Cc2ccccc2)cc(C)c1O [Example 29, 4-[(7-benzyl-5,6-dimethyl-7H-pyrrolo[2,3-d]pyrimidine-4-yl)-hydrazonomethyl]-2,6-dimethyl-phenol] | 237 to 240 |
| Cc1c(C)n(Cc2ccccc2)c2ncnc(C(=NN)c3ccc(N(C)C)cc3)c12 [Example 31, {4-[(7-benzyl-5,6-dimethyl-7H-pyrrolo[2,3-d]pyrimidine-4-yl)-hydrazonomethyl]-phenyl}-dimethyl-amine] | 219 to 221 |
| Cc1c(C)n(Cc2ccccc2)c2ncnc(NN=Cc3cccc([N+](=O)[O-])c3)c12 [Example 32, N-(7-benzyl-5,6-dimethyl-7H-pyrrolo[2,3-d]pyrimidine-4-yl)-N′-(3-nitro-benzylidene)-hydrazine] | 103 to 109.5 |
| COc1cc(C(=NN)c2ncnc3c2c(C)c(C)n3Cc2ccccc2)ccc1O [Example 33, 4-[(7-benzyl-5,6-dimethyl-7H-pyrrolo[2,3-d]pyrimidine-4-yl)-hydrazonomethyl]-2-methoxy-phenol] | 220 to 221 |
| Cc1c(C)n(Cc2ccccc2)c2ncnc(C(=NN)c3ccc(C#N)cc3)c12 [Example 35, 4-[(7-benzyl-5,6-dimethyl-7H-pyrrolo[2,3-d]pyrimidine-4-yl)-hydrazonomethyl]-benzonitrile] | 223.5 to 225 |
| Cc1c(C)n(-c2cccc(Cl)c2)c2ncnc(NN=C3C(=O)Nc4ccc(Br)cc43)c12 [Example 38, 5-bromo-3-{[5,6-dimethyl-7-(3-chloro-phenyl)-7H-pyrrolo[2,3-d]pyrimidine-4-yl]-hydrazono}-1,3-dihydro-indole-2-on] | 292 to 294.5 |
| Cc1c(C)n(-c2cccc(Cl)c2)c2ncnc(NN=C3C(=O)Nc4ccccc43)c12 [Example 39, 3-{[5,6-dimethyl-7-(3-chloro-phenyl)-7H-pyrrolo[2,3-d]pyrimidine-4-yl]-hydrazono}-1,3-dihydro-indole-2-on] | 281 to 293 |
| Cc1c(C)n(-c2cccc(Cl)c2)c2ncnc(NN=C3C(=O)Nc4ccc(Cl)cc43)c12 [Example 40, 5-chloro-3-{[5,6-dimethyl-7-(3-chloro-phenyl)-7H-pyrrolo[2,3-d]pyrimidine-4-yl]-hydrazono}-1,3-dihydro-indole-2-on] | 314 to 315 |

| SMILES | melting point [°C] |
| --- | --- |
| Cc1c(C)n(-c2cccc(Cl)c2)c2ncnc(NN=C3C(=O)Nc4c(Cl)ccc(Cl)c43)c12 [Example 41, 4,7-dichloro-3-{[5,6-dimethyl-7-(3-chloro-phenyl)-7H-pyrrolo[2,3-d]pyrimidine-4-yl]-hydrazono}-1,3-dihydro-indole-2-on] | 284 to 285 |
| Cc1ccc2c(c1)C(=NNc1ncnc3c1c(C)c(C)n3-c1cccc(Cl)c1)C(=O)N2 [Example 42, 3-{[5,6-dimethyl-7-(3-chloro-phenyl)-7H-pyrrolo[2,3-d]pyrimidine-4-yl]-hydrazono}-5-methyl-1,3-dihydro-indole-2-on] | 302 to 303 |
| Cc1c(C)n(-c2cccc(Cl)c2)c2ncnc(NN=C3C(=O)Nc4ccc(F)cc43)c12 [Example 43, 3-{[5,6-dimethyl-7-(3-chloro-phenyl)-7H-pyrrolo[2,3-d]pyrimidine-4-yl]-hydrazono}-5-fluoro-1,3-dihydro-indole-2-on] | 271 to 279 |
| Cc1c(C)n(-c2cccc(Cl)c2)c2ncnc(NN=C3C(=O)Nc4ccc(OC(F)(F)F)cc43)c12 [Example 44, 3-{[5,6-dimethyl-7-(3-chloro-phenyl)-7H-pyrrolo[2,3-d]pyrimidine-4-yl]-hydrazono}-5-trifluoromethoxy-1,3-dihydro-indole-2-on] | 262 to 276 |
| Cc1c(C)n(Cc2ccccc2)c2ncnc(NN=C3C(=O)Nc4ccc(Br)cc43)c12 [Example 45, 3-[(7-benzyl-5,6-dimethyl-7H-pyrrolo[2,3-d]pyrimidine-4-yl)-hydrazono]-5-bromo-1,3-dihydro-indole-2-on] | 288 to 290 |
| Cc1c(C)n(Cc2ccccc2)c2ncnc(NN=C3C(=O)Nc4ccccc43)c12 [Example 46, 3-[(7-benzyl-5,6-dimethyl-7H-pyrrolo[2,3-d]pyrimidine-4-yl)-hydrazono]-1,3-dihydro-indole-2-on] | 292 to 293 |
| Cc1c(C)n(Cc2ccccc2)c2ncnc(NN=C3C(=O)Nc4ccc(Cl)cc43)c12 [Example 48, 3-[(7-benzyl-5,6-dimethyl-7H-pyrrolo[2,3-d]pyrimidine-4-yl)-hydrazono]-5-chloro-1,3-dihydro-indole-2-on] | 302 to 303 |
| Cc1c(C)n(Cc2ccccc2)c2ncnc(NN=C3C(=O)Nc4cc(Cl)cc(Cl)c43)c12 [Example 49, 3-[(7-benzyl-5,6-dimethyl-7H-pyrrolo[2,3-d]pyrimidine-4-yl)-hydrazono]-4,6-dichloro-1,3-dihydro-indole-2-on] | 299 |
| Cc1c(C)n(Cc2ccccc2)c2ncnc(NN=C3C(=O)Nc4c(Cl)ccc(Cl)c43)c12 [Example 50, 3-[(7-benzyl-5,6-dimethyl-7H-pyrrolo[2,3-d]pyrimidine-4-yl)-hydrazono]-4,7-dichloro-1,3-dihydro-indole-2-on] | 298 |
| Cc1c(C)n(-c2cccc(Cl)c2)c2ncnc(Nc3c(C#N)c(-c4ccccc4)c(-c4ccccc4)n3Cc3ccccc3)c12 [Example 62, 1-benzyl-2-[5,6-dimethyl-7-(3-chloro-phenyl)-7H-pyrrolo[2,3-d]pyrimidine-4-yl-amino]-4,5-diphenyl-1H-pyrrol-3-carbonitrile] | 187.4 to 189.3 |
| Cc1c(C#N)c(Nc2ncnc3c2c(C)c(C)n3-c2cccc(Cl)c2)n(Cc2ccccc2)c1C [Example 63, 1-benzyl-2-[5,6-dimethyl-7-(3-chloro-phenyl)-7H-pyrrolo[2,3-d]pyrimidine-4-yl-amino]-4,5-dimethyl-1H-pyrrol-3-carbonitrile] | 228.1 to 229 |
| Cc1c(C#N)c(Nc2ncnc3c2c2ccccc2n3Cc2ccccc2)n(-c2cccc(Cl)c2)c1C [Example 64, 2-(9-benzyl-9H-1,3,9-triaza-fluorene-4-yl-amino)-1-(3-chloro-phenyl)-4,5-dimethyl-1H-pyrrol-3-carbonitrile] | 252.2 to 253.1 |
| N#Cc1c(-c2ccccc2)c(-c2ccccc2)n(Cc2ccccc2)c1Nc1ncnc2c1c1ccccc1n2Cc1ccccc1 [Example 66, 1-benzyl-2-(9-benzyl-9H-1,3,9-triaza-fluorene-4-yl-amino)-4,5-diphenyl-1H-pyrrol-3-carbonitrile] | > 90 |
| Cc1c(C)n(Cc2ccccc2)c2ncnc(Nc3c(C#N)c(-c4ccccc4)c(-c4ccccc4)n3Cc3ccccc3)c12 [Example 74, 1-benzyl-2-(7-benzyl-5,6-dimethyl-7H-pyrrolo[2,3-d]pyrimidine-4-yl-amino)-4,5-diphenyl-1H-pyrrol-3-carbonitrile] | 197.1 to 197.6 |
| Cc1c(C#N)c(Nc2ncnc3c2c(C)c(C)n3Cc2ccccc2)n(Cc2ccccc2)c1C [Example 75, 1-benzyl-2-(7-benzyl-5,6-dimethyl-7H-pyrrolo[2,3-d]pyrimidine-4-yl-amino)-4,5-dimethyl-1H-pyrrol-3-carbonitrile] | 236 to 239.1 |
